Results on 45 molecules are retold here after patent US5726162A (priority 1996, dated 1998).

Like-named read-outs stand apart in the source and are kept apart here.

Assay [1] relates to fungal mycelium. In words: organism not typed. The format is cell-based. The settings on record: read-out: % growth inhibition.
Assay [2] relates to Magnaporthe grisea (Pyricularia oryzae). Briefly: whole plant or invertebrate. The following applies: for pest or weed control at 200 ppm: Pyricularia oryzae, 144 h, read-out: % Control RB. Format: in vivo, Magnaporthe grisea (Pyricularia oryzae) on M201 rice plants.
Assay [3] concerns Candida albicans. Briefly: Activity against Candida albicans in microtiter plates, % control of growth. The format is cell-based. As to the method: The activity against Candida albicans was determined using the following test protocol.
Conidia and mycelium from the Candida albicans culture maintained on potato dextrose agar plates were lightly scraped off into yeast extract-dextrose broth (YDB) so that mostly conidia was used as inoculum. The conidial suspsension was strained through a double layer of cheesecloth to remove mycelial clumps. The inoculum mixture was placed in microtiter plates using a 12-tipped pipet. 175 microliters were placed in each well of the microliter plates and the plates were placed in the refrigerator overnight. There were two replications.
The compounds to be tested were dissolved in 1:1 acetone:methanol and 100 ppm of the compound solution were placed in a well of the prepared microtiter plates.
The microtiter plates were incubated for 7 days at room temperature after addition of the compounds. Percent control was visually estimated using a microtiter plate reading mirror. Readings were made at 1, 2, 3, and/or 7 days after treatment.

For assay [4], the system named is fungal inoculum. Briefly: organism not typed. The format is cell-based. The following applies: for inhibition at 100 ppm / inhibition at 50 ppm / inhibition at 10 ppm / inhibition at 5 ppm / inhibition at 1 ppm / inhibition at 0.5 ppm: read-out: % growth inhibition.
The mark [5] stands for this setting: 24 h, 1 day after treatment, read-out: % control of growth +1.
The mark [6] stands for this setting: 48 h, 2 days after treatment, read-out: % control of growth +2.
Where [7] appears, read: 72 h, 3 days after treatment, read-out: % control of growth +3.

The term inhibition denotes the change of the read-out against control, counted positive when it falls.

`CCC#CCn1nc(-c2ccc(Br)cc2)ccc1=O` [Compound 121]: in assay [1], the inhibition at 1 ppm amounted to 100%. In addition, the pest or weed control at 200 ppm in assay [2] is 95%. Moreover, the inhibition of growth at 100 ppm in assay [3] (setting [5]), in assay [3] (setting [6]) and in assay [3] (setting [7]) was 100% throughout.

`O=C1CCC(c2ccc(Cl)cc2)=NN1CC#CCF` [Compound 76, 6-(4-chlorophenyl)-2-(4'-fluoro-2'-butynyl)-4,5-dihydropyridazinone]: in assay [1], the inhibition at 10 ppm stood at 100%. The pest or weed control at 200 ppm in assay [2] was found to be 0%. The inhibition of growth at 100 ppm in assay [3] (setting [5]), in assay [3] (setting [6]) and in assay [3] (setting [7]) was 100% each time.

On to `CC(C)(C)C#CCN1N=C(c2ccc(Cl)cc2)CCC1=O` [Compound 46], for which, in assay [4], the inhibition at 100 ppm turned out to be 100%. Further, the pest or weed control at 200 ppm in assay [2] turned out to be 0%.

`CC#CCN1N=C(c2ccc(Cl)c([N+](=O)[O-])c2)CCC1=O` [Compound 39]: in assay [4], the inhibition at 50 ppm turned out to be 94.6%. Besides, the pest or weed control at 200 ppm in assay [2] is 0%.

With `CCC#CCN1N=C(c2ccc(SC)cc2)CCC1=O` [Compound 61], the inhibition at 10 ppm in assay [4] was 95.3%. Besides, the pest or weed control at 200 ppm in assay [2] worked out at 90%.

For the molecule `COC(=O)C#CCN1N=C(c2ccc(Cl)cc2)CCC1=O` [Compound 55], in assay [4], the inhibition at 50 ppm came out at 100%. Moreover, the pest or weed control at 200 ppm in assay [2] came to 0%.

For the molecule `CC(F)C#CCn1nc(-c2ccc(Cl)cc2)ccc1=O` (stereo not drawn) [Compound 130], in assay [1], the inhibition at 1 ppm is 100%. The inhibition of growth at 100 ppm in assay [3] (setting [5]), in assay [3] (setting [6]) and in assay [3] (setting [7]) was 100% in each case.

Take `CC#CCN1N=C(c2c(OC)ccc3ccc(OC)cc23)CCC1=O` [Compound 138]: the inhibition at 100 ppm in assay [4] amounted to 64.6%. In assay [2], the pest or weed control at 200 ppm stood at 0%.

In the case of `O=C1CCC(c2ccc(Cl)cc2)=NN1CC#CC1CO1` (stereo not drawn) [Compound 77], in assay [4], the inhibition at 10 ppm is 89.2%. The pest or weed control at 200 ppm in assay [2] was 0%.

Turning to `CC#CCN1N=C(c2ccc(CC)cc2)CCC1=O` [Compound 58], the inhibition at 10 ppm in assay [4] stood at 39.8%. Also, in assay [2], the pest or weed control at 200 ppm amounted to 0%.

Regarding `CCC#CCN1N=C(c2ccc3ccccc3n2)CCC1=O` [Compound 229, 6-(2-quinoline)-2-(2'-pentynyl)-4,5-dihydropyridazinone], the inhibition at 5 ppm in assay [1] was determined as 100%. The inhibition of growth at 100 ppm in assay [3] (setting [5]), in assay [3] (setting [6]) and in assay [3] (setting [7]) was 100% throughout.

For `CCC#CCN1N=C(c2ccc(Cl)cc2F)CCC1=O` [Compound 73], the inhibition at 50 ppm in assay [4] came to 94.4%. In addition, the pest or weed control at 200 ppm in assay [2] worked out at 95%.

In the case of `O=C1CCC(c2ccc(Cl)cc2)=NN1CC1CC1` [Compound 25], in assay [4], the inhibition at 50 ppm was found to be 100%. Also, in assay [2], the pest or weed control at 200 ppm turned out to be 50%.

`CC#CCN1N=C(c2ccc(Cl)cc2)C(C)CC1=O` (stereo not drawn) [Compound 26, 6-(4-chlorophenyl)-5-methyl-2-(2'-butynyl)-4,5-dihydropyridazinone]: the inhibition at 50 ppm in assay [4] came out at 96.3%. For the same molecule, in assay [2], the pest or weed control at 200 ppm was found to be 95%.

Regarding `CC#CCn1nc(-c2ccc(Cl)c(C)c2)ccc1=O` [Compound 114], the inhibition at 5 ppm in assay [4] worked out at 100%. The pest or weed control at 200 ppm in assay [2] was 50%.

Consider `CCC#CCN1N=C(c2ccc(CC)cc2)CCC1=O` [Compound 59], for which the inhibition at 10 ppm in assay [4] is 100%. In addition, the pest or weed control at 200 ppm in assay [2] came out at 0%.

Turning to `CCC#CCn1nc(-c2ccc(Cl)c(C)c2)ccc1=O` [Compound 113], the inhibition at 10 ppm in assay [4] amounted to 64.3%. Moreover, the pest or weed control at 200 ppm in assay [2] turned out to be 95%.

`CC#CCN1N=C(c2ccc(Cl)cc2)CC(C)C1=O` (stereo not drawn) [Compound 27]: the inhibition at 50 ppm in assay [4] turned out to be 100%. In addition, the pest or weed control at 200 ppm in assay [2] came out at 0%.

With `CCC#CCn1nc(-c2sc3ccccc3c2Br)ccc1=O` [Compound 148], the inhibition at 10 ppm in assay [4] was 0%. In assay [2], the pest or weed control at 200 ppm worked out at 0%.

With `CCC#CCN1N=C(c2ccc3ccccc3c2)CCC1=O` [Compound 136], in assay [4], the inhibition at 1 ppm is 84.6%. Further, the pest or weed control at 200 ppm in assay [2] was 99%.

Consider `O=C1CCC(c2ccc(Cl)cc2)=NN1c1ccccc1` [Compound 14], for which, in assay [4], the inhibition at 50 ppm worked out at 100%. Further, the pest or weed control at 200 ppm in assay [2] worked out at 0%.

As to `CCC#CCn1nc(-c2ccc(CC)cc2)ccc1=O` [Compound 110], the inhibition at 10 ppm in assay [4] was 100%. For the same molecule, the pest or weed control at 200 ppm in assay [2] worked out at 0%.

As to `CCC#CCn1nc(-c2ccc(Cl)c(Cl)c2)ccc1=O` [Compound 112], in assay [4], the inhibition at 10 ppm is 100%. In addition, the pest or weed control at 200 ppm in assay [2] is 90%.

Consider `CC#CCN1N=C(c2cccc3ccccc23)CCC1=O` [Compound 134, 6-(1-naphthyl)-2-(2'-pentynyl)-4,5-dihydropyridazinone], for which, in assay [4], the inhibition at 50 ppm stood at 66.5%. The pest or weed control at 200 ppm in assay [2] was 0%.

For the molecule `CC#CCn1nc(-c2ccc(Cl)cc2C)ccc1=O` [Compound 116], the inhibition at 50 ppm in assay [4] amounted to 82.5%. Moreover, in assay [2], the pest or weed control at 200 ppm came to 0%.

With `CC(F)C#CCN1N=C(c2ccc(Cl)cc2)CCC1=O` (stereo not drawn) [Compound 53], the inhibition at 50 ppm in assay [4] came out at 100%. In assay [2], the pest or weed control at 200 ppm is 100%.

In the case of `CC#CCN1N=C(c2ccccc2)CCCC1=O` [Compound 139, 2-(2-butynyl)-7-phenyl-1,2-diazapin-3-one], the inhibition at 100 ppm in assay [4] came out at 65%. Besides, the pest or weed control at 200 ppm in assay [2] is 0%.

Turning to `CC#CCN1N=C(c2ccc(Br)cc2)CCC1=O` [Compound 31], in assay [4], the inhibition at 5 ppm worked out at 92.4%. Besides, the pest or weed control at 200 ppm in assay [2] was 90%.

Consider `CC(C)=CCN1N=C(c2ccc(Cl)cc2)CCC1=O` [Compound 32], for which the inhibition at 100 ppm in assay [4] turned out to be 100%. Further, the pest or weed control at 200 ppm in assay [2] turned out to be 0%.

With `CC#CCN1N=C(c2cccs2)CCC1=O` [Compound 140], the inhibition at 100 ppm in assay [4] stood at 37.8%. The pest or weed control at 200 ppm in assay [2] is 75%.

In the case of `O=C1CCC(c2ccc(Cl)cc2)=NN1CC#CCCl` [Compound 72, 6-(4-chlorophenyl)-2-(4'-chloro-2'-butynyl)-4,5-dihydropyridazinone], in assay [4], the inhibition at 0.5 ppm amounted to 96.2%. Also, the pest or weed control at 200 ppm in assay [2] turned out to be 90%.

As to `O=C1CCC(c2ccc(Cl)cc2)=NN1CC#CI` [Compound 60], the inhibition at 10 ppm in assay [4] was 100%. Further, the pest or weed control at 200 ppm in assay [2] came to 50%.

As for `O=C1CCC(c2ccc(Cl)cc2)=NN1CC#CCCO` [Compound 50], the inhibition at 50 ppm in assay [4] was determined as 100%. Moreover, in assay [2], the pest or weed control at 200 ppm came out at 0%.

In the case of `CC#CCN1N=C(c2ccc(Cl)c(Cl)c2)CCC1=O` [Compound 23], the inhibition at 5 ppm in assay [4] was 100%. Besides, in assay [2], the pest or weed control at 200 ppm stood at 50%.

For `CCC#CCN1N=C2c3ccccc3CC2CC1=O` (stereo not drawn) [Compound 142], the inhibition at 50 ppm in assay [4] worked out at 100%. In addition, the pest or weed control at 200 ppm in assay [2] was found to be 50%.

As to `CC#CCN1N=C(c2cccc(Cl)c2)CCC1=O` [Compound 37, 6-(3-chlorophenyl)-2-(2'-butynyl)-4,5-dihydropyridazinone], in assay [4], the inhibition at 100 ppm was 100%. The pest or weed control at 200 ppm in assay [2] is 90%.

Consider `O=c1ccc(-c2ccc(Cl)cc2)nn1CC#CCCF` [Compound 131], for which the inhibition at 1 ppm in assay [1] was found to be 100%. Also, the inhibition of growth at 100 ppm in assay [3] (setting [5]), in assay [3] (setting [6]) and in assay [3] (setting [7]) was 100% in each case.

Take `CCC#CCN1N=C(c2cc(Cl)c(C)c(Cl)c2Cl)CCC1=O` [Compound 43]: in assay [4], the inhibition at 10 ppm came out at 22.3%. The pest or weed control at 200 ppm in assay [2] was 0%.

Regarding `CC(O)C#CCN1N=C(c2ccc(Cl)cc2)CCC1=O` (stereo not drawn) [Compound 47, 6-(4-chlorophenyl)-2-(4'hydroxy-2'-pentynyl)-4,5-dihydropyridazinone], in assay [4], the inhibition at 50 ppm was 100%. The pest or weed control at 200 ppm in assay [2] is 0%.

`CCCC#CCN1N=C(c2ccc(Cl)cc2)CCC1=O` [Compound 29]: the inhibition at 1 ppm in assay [4] was 86.1%. Moreover, the pest or weed control at 200 ppm in assay [2] came to 95%.

On to `CCC[CH2][Sn]([C]#CCN1N=C(c2ccc(Cl)cc2)CCC1=O)([CH2]CCC)[CH2]CCC` [Compound 124, 6-(4-chlorophenyl)-2-(3'-tri-n-butyltin-2'-propynyl)-4,5-dihydropyridazinon], for which, in assay [4], the “% growth inhibition” value came to 100.0%. Moreover, the “% Control RB” value in assay [2] (200 ppm, protectant) was 0%.

As for `O=C1CCC(c2ccc(Cl)cc2)=NN1CC#CC(F)=C(F)F` [Compound 78], the inhibition at 0.5 ppm in assay [4] was found to be 100%. In addition, the pest or weed control at 200 ppm in assay [2] came to 0%.

Consider `CC#CCN1N=C(c2ccc3ccc4cccc5ccc2c3c45)CCC1=O` [Compound 141], for which, in assay [4], the inhibition at 100 ppm was 23.9%. Further, the pest or weed control at 200 ppm in assay [2] worked out at 0%.

Turning to `O=C1CCC(c2ccc(Cl)cc2)=NN1CC#CCCF` [Compound 51, 6-(4-chlorophenyl)-2-(5'-fluoro-2'-pentynyl)-4,5-dihydropyridazinone], the inhibition at 50 ppm in assay [4] amounted to 100%. Also, the pest or weed control at 200 ppm in assay [2] worked out at 100%.

On to `CCC#CCN1N=C(c2ccc(C(C)(C)C)cc2)CCC1=O` [Compound 57], for which, in assay [4], the inhibition at 100 ppm amounted to 95.7%. The pest or weed control at 200 ppm in assay [2] came out at 0%.
